Values quoted from earlier work as cited in PubChem BioAssay AID1259409 (Chemical Carcinogenesis Research Information System (CCRIS), 2018).

System: rodent chemically induced tumor inhibition, incidence and multiplicity
Assay: CCRIS tumor inhibitor studies

C[C@]12CC[C@H](O)CC1=CC[C@@H]1[C@@H]2CC[C@]2(C)C(=O)CC[C@@H]12
tumour outcome (control, treated, inhibition, significance) (Carcinogen: N-METHYL-N-NITROSOUREA, 684-93-5, Dose [Inhibitor]: 0, 5 PPM IN DIET FOR DURATION OF STUDY BEGINNING 1 WK PRIOR TO CARCINOGEN DOSE (STUDY DURATION: 109 D), Route [Inhibitor]: ORAL, Species: RAT, Strain/Sex: SPRAGUE-DAWLEY/FEMALE, Target Tissue: Type of Lesion: MAMMARY GLAND: TUMOR, Dose [Carcinogen]: 50 MG/KG BW IN ACIDIFIED SALINE (PH 5.0) ONCE, Promoter: NONE USED): 100%, 89%, 11%, not calculated
tumour outcome (control, treated, inhibition, significance) (Carcinogen: N-METHYL-N-NITROSOUREA, 684-93-5, Dose [Inhibitor]: 0, 24 PPM IN DIET FOR DURATION OF STUDY BEGINNING 1 WK PRIOR TO CARCINOGEN DOSE (STUDY DURATION: 109 D), Route [Inhibitor]: ORAL, Species: RAT, Strain/Sex: SPRAGUE-DAWLEY/FEMALE, Target Tissue: Type of Lesion: MAMMARY GLAND: TUMOR, Dose [Carcinogen]: 50 MG/KG BW IN ACIDIFIED SALINE (PH 5.0) ONCE, Promoter: NONE USED): 100%, 80%, 20%, not calculated
tumour outcome (control, treated, inhibition, significance) (Carcinogen: N-METHYL-N-NITROSOUREA, 684-93-5, Dose [Inhibitor]: 0, 120 PPM IN DIET FOR DURATION OF STUDY BEGINNING 1 WK PRIOR TO CARCINOGEN DOSE (STUDY DURATION: 109 D), Route [Inhibitor]: ORAL, Species: RAT, Strain/Sex: SPRAGUE-DAWLEY/FEMALE, Target Tissue: Type of Lesion: MAMMARY GLAND: TUMOR, Dose [Carcinogen]: 50 MG/KG BW IN ACIDIFIED SALINE (PH 5.0) ONCE, Promoter: NONE USED): 100%, 80%, 20%, not calculated
tumour outcome (control, treated, inhibition, significance) (Carcinogen: N-METHYL-N-NITROSOUREA, 684-93-5, Dose [Inhibitor]: 0, 400 MG/KG DIET FOR DURATION OF STUDY BEGINNING 1 WK PRIOR TO CARCINOGEN DOSE (STUDY DURATION: 187 D), Route [Inhibitor]: ORAL, Species: RAT, Strain/Sex: SPRAGUE-DAWLEY/FEMALE, Target Tissue: Type of Lesion: MAMMARY GLAND: TUMOR, Dose [Carcinogen]: 35 MG/KG BW ONCE, Promoter: NONE USED): 85%, 0%, 100%, p<0.01
tumour outcome (control, treated, inhibition, significance) (Carcinogen: N-METHYL-N-NITROSOUREA, 684-93-5, Dose [Inhibitor]: 0, 600 PPM IN DIET FOR DURATION OF STUDY BEGINNING 1 WK PRIOR TO CARCINOGEN DOSE (STUDY DURATION: 109 D), Route [Inhibitor]: ORAL, Species: RAT, Strain/Sex: SPRAGUE-DAWLEY/FEMALE, Target Tissue: Type of Lesion: MAMMARY GLAND: TUMOR, Dose [Carcinogen]: 50 MG/KG BW IN ACIDIFIED SALINE (PH 5.0) ONCE, Promoter: NONE USED): 100%, 40%, 60%, not calculated
tumour outcome (control, treated, inhibition, significance) (Carcinogen: N-METHYL-N-NITROSOUREA, 684-93-5, Dose [Inhibitor]: 0, 800 MG/KG DIET FOR DURATION OF STUDY BEGINNING 1 WK PRIOR TO CARCINOGEN DOSE (STUDY DURATION: 187 D), Route [Inhibitor]: ORAL, Species: RAT, Strain/Sex: SPRAGUE-DAWLEY/FEMALE, Target Tissue: Type of Lesion: MAMMARY GLAND: TUMOR, Dose [Carcinogen]: 35 MG/KG BW ONCE, Promoter: NONE USED): 70%, 0%, 100%, p<0.01
tumour outcome (control, treated, inhibition, significance) (Carcinogen: N-NITROSOMORPHOLINE, 59-89-2, Dose [Inhibitor]: 0.25% IN DIET (STUDY DURATION: 51 WK), Route [Inhibitor]: ORAL, Species: RAT, Strain/Sex: SPRAGUE-DAWLEY/MALE, Target Tissue: Type of Lesion: LIVER: HEMANGIOSARCOMA, Dose [Carcinogen]: 120 MG/L IN DRINKING WATER FOR FIRST 7 WK OF STUDY, Promoter: NONE USED): 8/35 (23%), 1/35 (3%), 88%, p<0.05
tumour outcome (control, treated, inhibition, significance) (Carcinogen: N-NITROSOMORPHOLINE, 59-89-2, Dose [Inhibitor]: 0.25% IN DIET (STUDY DURATION: 51 WK), Route [Inhibitor]: ORAL, Species: RAT, Strain/Sex: SPRAGUE-DAWLEY/MALE, Target Tissue: Type of Lesion: LIVER: HEPATOCELLULAR ADENOMA, MIXED CELL, Dose [Carcinogen]: 120 MG/L IN DRINKING WATER FOR FIRST 7 WK OF STUDY, Promoter: NONE USED): 32/35 (91%), 28/35 (80%), 14%, not calculated
tumour outcome (control, treated, inhibition, significance) (Carcinogen: N-NITROSOMORPHOLINE, 59-89-2, Dose [Inhibitor]: 0.25% IN DIET (STUDY DURATION: 51 WK), Route [Inhibitor]: ORAL, Species: RAT, Strain/Sex: SPRAGUE-DAWLEY/MALE, Target Tissue: Type of Lesion: LIVER: HEPATOCELLULAR CARCINOMA, Dose [Carcinogen]: 120 MG/L IN DRINKING WATER FOR FIRST 7 WK OF STUDY, Promoter: NONE USED): 33%, 20%, 39%, not calculated
tumour outcome (control, treated, inhibition, significance) (Carcinogen: N-methyl-N-nitrosourea, 684-93-5, Dose [Inhibitor]: 125 mg/kg in diet for 6 wks starting 6 wks after administration of carcinogen, Route [Inhibitor]: Oral, Species: Rat, Strain/Sex: Sprague Dawley/Female, Target Tissue: Type of Lesion: Mammary gland: tumors, Dose [Carcinogen]: 50 mg/kg injected once in 50 d old mice, tumors allowed to develop for 6 wks before inhibitor administration (Test mater, Promoter: None used): 93.3%, 96.7%, -0.03%, not significant
tumour outcome (control, treated, inhibition, significance) (Carcinogen: N-methyl-N-nitrosourea, 684-93-5, Dose [Inhibitor]: 1000 mg/kg in diet for 6 wks starting 6 wks after administration of carcinogen, Route [Inhibitor]: Oral, Species: Rat, Strain/Sex: Sprague Dawley/Female, Target Tissue: Type of Lesion: Mammary gland: tumors, Dose [Carcinogen]: 50 mg/kg injected once in 50 d old mice, tumors allowed to develop for 6 wks before inhibitor administration (Test mater, Promoter: None used): 93.3%, 76.7%, 17.8%, not significant
tumour outcome (control, treated, inhibition, significance) (Carcinogen: NONE USED, Dose [Inhibitor]: 0, 0.45% IN DIET FOR DURATION OF STUDY (STUDY DURATION: 84 WK), Route [Inhibitor]: ORAL, Species: RAT, Strain/Sex: F344/MALE, Target Tissue: Type of Lesion: TESTES: LEYDIG CELL TUMOR, Promoter: NONE USED): 8/8 (100%), 0/13 (0%), 100%, p<0.005
tumour outcome (control, treated, inhibition, significance) (Carcinogen: NONE USED, Dose [Inhibitor]: 450 MG/KG IN SESAME OIL 3/WK BEGINNING AT 5-6 WK OF AGE AND CONTINUING FOR DURATION OF STUDY (STUDY DURATION: 18 MO), Route [Inhibitor]: INTRAGASTRIC, Species: MOUSE, Strain/Sex: C3H-A/A/FEMALE, Target Tissue: Type of Lesion: MAMMARY GLAND: TUMOR, Promoter: NONE USED): 21/78 (27%), 9/77 (12%), 56%, p<0.05
tumour outcome (control, treated, inhibition, significance) (Carcinogen: NONE USED, Dose [Inhibitor]: 450 MG/KG IN SESAME OIL 3/WK BEGINNING AT 5-6 WK OF AGE AND CONTINUING FOR DURATION OF STUDY (STUDY DURATION: 18 MO), Route [Inhibitor]: INTRAGASTRIC, Species: MOUSE, Strain/Sex: C3H-AVY/A/FEMALE, Target Tissue: Type of Lesion: MAMMARY GLAND: TUMOR, Promoter: NONE USED): 19/27 (70%), 5/23 (22%), 68%, p<0.005
tumour outcome (control, treated, inhibition, significance) (Carcinogen: NONE USED, Dose [Inhibitor]: 450 MG/KG IN SESAME OIL 3/WK FOR DURATION OF STUDY (STUDY DURATION: 9 MO), Route [Inhibitor]: INTRAGASTRIC, Species: MOUSE, Strain/Sex: C3H-AVY/A/FEMALE, Target Tissue: Type of Lesion: MAMMARY GLAND: TUMOR, Promoter: NONE USED): 14/26 (54%), 0/24 (0%), 100%, not calculated
